Experimental data as given in the supplement of paper PMC10307832.

Experiments:
Assay in all cases: relative viability (nuclei count vs DMSO), 5 days (fraction); higher = more cells survive
Quizartinib + Luminespib = compound: CC(C)(C)c1cc(NC(=O)Nc2ccc(-c3cn4c(n3)sc3cc(OCCN5CCOCC5)ccc34)cc2)no1 [Quizartinib] + CCNC(=O)c1noc(-c2cc(C(C)C)c(O)cc2O)c1-c1ccc(CN2CCOCC2)cc1 [Luminespib] (partner 0.01 µM)
Method in brief: (§1)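 Dosing by pin tool came one day after lung cancer cell lines were seeded in 1536-well plates, using either one drug or a fixed anchor-drug dose plus five library-drug doses (not always all listed) in √10 steps. After 5 days, nuclei were counted on 4× images. Relative viability is treated-well nuclei count divided by vehicle-well nuclei count, and values are medians of duplicate plates.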

Quizartinib + Phenformin = compound: CC(C)(C)c1cc(NC(=O)Nc2ccc(-c3cn4c(n3)sc3cc(OCCN5CCOCC5)ccc34)cc2)no1 [Quizartinib] + N=C(N)NC(=N)NCCc1ccccc1 [Phenformin] (partner 250 µM)
Method in brief: as §1

Quizartinib + Decitabine = compound: CC(C)(C)c1cc(NC(=O)Nc2ccc(-c3cn4c(n3)sc3cc(OCCN5CCOCC5)ccc34)cc2)no1 [Quizartinib] + Nc1ncn([C@H]2C[C@H](O)[C@@H](CO)O2)c(=O)n1 [Decitabine] (partner 2 µM)
Method in brief: as §1

YM155 + Linsitinib = compound: COCC[n+]1c2c(n(Cc3cnccn3)c1C)C(=O)c1ccccc1C2=O [YM155] + C[C@]1(O)C[C@@H](c2nc(-c3ccc4ccc(-c5ccccc5)nc4c3)c3c(N)nccn32)C1 [Linsitinib] (partner 1 µM)
Method in brief: as §1

Cell Line	relative viability (Quizartinib + Luminespib; first compound 0.001 µM)	relative viability (Quizartinib + Luminespib; first compound 0.003162 µM)	relative viability (Quizartinib + Luminespib; first compound 0.01 µM)	relative viability (Quizartinib + Luminespib; first compound 0.03162 µM)	relative viability (Quizartinib + Luminespib; first compound 0.1 µM)	relative viability (Quizartinib + Phenformin; first compound 0.001 µM)	relative viability (Quizartinib + Phenformin; first compound 0.003162 µM)	relative viability (Quizartinib + Phenformin; first compound 0.01 µM)	relative viability (Quizartinib + Phenformin; first compound 0.03162 µM)	relative viability (Quizartinib + Phenformin; first compound 0.1 µM)	relative viability (Quizartinib + Decitabine; first compound 0.001 µM)	relative viability (Quizartinib + Decitabine; first compound 0.003162 µM)	relative viability (Quizartinib + Decitabine; first compound 0.01 µM)	relative viability (Quizartinib + Decitabine; first compound 0.03162 µM)	relative viability (Quizartinib + Decitabine; first compound 0.1 µM)	relative viability (YM155 + Linsitinib; first compound 0.002 µM)	relative viability (YM155 + Linsitinib; first compound 0.006325 µM)	relative viability (YM155 + Linsitinib; first compound 0.02 µM)	relative viability (YM155 + Linsitinib; first compound 0.06325 µM)
201T	1.01	1.01	0.963	1.01	1.01	0.472	0.426	0.476	0.408	0.438	0.812	0.799	0.882	0.847	0.87	0.98	0.984	1.03	1.06
A549						0.166	0.155	0.201	0.117	0.162	0.193	0.249	0.161	0.27	0.25	0.61	0.576	0.544	0.732
A-427	1.03	0.777	0.988	0.506	1.01		0.411	0.327	0.256	0.189	0.517	0.529	0.582	0.515	0.566	1.06	1.22	1.12	1.09
ABC-1	0.67	0.445	0.504		0.498	0.237	0.322	0.227	0.261	0.18		1	1.16	1.29	1.16	0.727	0.457	0.153	0.233
BEN	0.421	0.33	0.307	0.384	0.214	0.271	0.279	0.272	0.243	0.26	0.586	0.756	0.652	0.649	0.728	0.922	1.03	0.878	0.929
CAL-12T	0.456	0.373	0.638	0.357	0.363	0.587	0.533	0.66	0.435	0.39						0.818	0.98	0.9	0.781
COR-L23	0.653	0.613	0.773	0.439	0.668	0.419	0.389	0.476	0.37	0.322	0.436	0.457	0.398	0.372	0.467	0.846	0.857	0.463	0.174
COR-L 105	0.579	0.765	0.738	0.693	0.59	0.449	0.495	0.471	0.406	0.426	0.642	0.653	0.641		0.625	1	1.13	1.04	0.672
Calu-6																0.946	0.836	0.848	0.175
ChaGo-K-1	0.522	0.635	0.682	0.625	0.601	0.516	0.494	0.455	0.443	0.421		0.521	0.589	0.532	0.596				
EBC-1																0.8	0.925	0.864	0.755
EKVX	0.673	0.805	0.862	0.829	0.865	0.21	0.24	0.238	0.244	0.25		0.282	0.361	0.369	0.353	0.958	1.09	1.04	0.697
EMC-BAC-2	1.11	1.15	1.2		1.23	0.446	0.493	0.552		0.525	0.812	0.975	1.04		0.996	0.85	0.83	0.597	0.818
EPLC-272H	0.439	0.418	0.44	0.399	0.168	0.215	0.342	0.427	0.3	0.207	0.301	0.417	0.375	0.376	0.382	1.22	1.19	1.1	1.06
H3255	0.788	0.857	0.966	0.971	0.875	0.38	0.31	0.383	0.346	0.354		0.576	0.674	0.601	0.738	1.04	0.875	0.917	0.981
HARA		0.684	0.933	0.526	0.566		0.453	0.489	0.445	0.386	0.456	0.518	0.743	0.522	0.703	0.902	0.946	1.04	0.931
HCC-15		0.281	0.197	0.346	0.33		0.461	0.396		0.436	0.57	0.651	0.612	0.521	0.615	0.809	0.627	0.872	0.798
HCC-44		0.99	1.06	0.35	0.996	0.203	0.323		0.169	0.261	0.864	0.798	0.905	0.996	0.855	0.712	0.724	0.715	0.664
HCC-78						0.687	0.832	0.707	0.574	0.73	0.651	0.624	0.619	0.631	0.751	0.615	0.494	0.486	0.598
HCC-366						0.615	0.549	0.577	0.601	0.547	0.313	0.334	0.352	0.331	0.314	0.683	0.61	0.659	0.676
